Source: US9072777B2, “Method for screening substance having proangiogenic effect” (priority 2005, dated 2015)
Ends that are not written are not given here.

How the values were obtained:
[1] = system: lower extremity ischemia model mouse; experiment: lower extremity ischemia model mouse (laser Doppler perfusion imaging, wound healing, new vessels); assay type: in vivo
Experimental: Mouse lower extremity ischemia model was prepared as follows.
C3H mice were anesthetized with nembutal and then skin of one side of lower extremity was cut open to expose artery of lower extremity. The lower extremity ischemia model was prepared by ligating artery of lower extremity at upper groin and lower popliteal region and resecting the artery of lower extremity at this region. The recovery of the blood flow after the resection of the artery of lower extremity by the development of the collateral circulation was observed.
C3H mice at the age of 6 months were divided into three groups; AM administration group, VEGF administration group, and control group. Mice of AM treatment group was continuously injected with AM (50 ng/h) by osmotic pump. Each mouse of VEGF administration group was injected with 20 μl of VEGF (5 ng/h) intramuscularly and used as positive control. Mice of control group were injected with PBS continuously.
The blood flow in the lower extremity ischemia model was monitored using laser Doppler perfusion imaging. The effect of AM on wound healing was also investigated. […] In FIG. 4, almost no blood flow in ischemic lower limb was observed on the first day of ischemic model preparation ([…] day 0).
The increasing of the number of new intramuscular blood vessel at the side of operation was also observed (FIG. 6, panel B). In contrast, in AM heterozygous knockout mice (AM +/−), and the mice administered with “AM 22-52”, a truncated form of AM consisting of from 22 to 52 amino acid sequence (AM antagonist), suppression of the recovery of blood flow and the angiogenesis were observed (FIG. 7). In FIG. 7, the mark “**” denotes p<0.01. Hereinafter the same.

claudin 5 = claudin 5 gene expression in HUVEC cultured on Matrigel, real-time PCR; assay type: cell-based, human
Experimental: (1) Adrenomedullin was administered exogenously to HUVEC cultured on Matrigel. After stimulating for 24 hours, the cell was recovered and RNA was extracted. The expression of claudin 5 gene was investigated using real-time PCR technique.
(2) “AM 22-52”, a truncated form of AM consisting of from 22 to 52 amino acid sequence was administered to HUVEC cultured on Matrigel to investigate the gene expression level.

Akt = experiment: phosphorylation of Akt in HUVEC, Western Blot; assay type: cell-based, human; conditions: AM 10^-11 to 10^-7 M in combination with VEGF 10 ng/ml
Experimental: (§1) Single administration of AM (10^−11 to 10^−7 M) alone, or administration of AM in combination with VEGF (10 ng/ml) to the cultivating system of human umbilical vein endothelial cell was carried out. Protein was extracted from cells and the phosphorylation of Akt and eNOS was investigated using Western Blot analysis.

eNOS = experiment: phosphorylation of eNOS in HUVEC, Western Blot; assay type: cell-based, human; conditions: AM 10^-11 to 10^-7 M in combination with VEGF 10 ng/ml
Experimental: as §1

VEGF [2] = experiment: expression of VEGF in femoral muscle of lower extremity ischemia model mouse, Western Blot; assay type: in vivo; conditions: AM administration group vs control
Experimental: The lower extremity ischemia model mouse prepared as in Example 2 was sacrificed by cervical dislocation, then femoral muscle sampled, from which protein was extracted and Western Blot analysis was conducted.

VEGF [3] = experiment: expression of VEGF in human artery endothelial cell (HAEC), RT-PCR; assay type: cell-based; conditions: AM concentration and stimulation time dependence
Experimental: Also, the expression of VEGF in human artery endothelial cell (HAEC) was analyzed using RT-PCR.

[4] = system: AM heterozygous knockout mice (AM +/-); experiment: rescue test using AM heterozygous knockout mice (lower extremity ischemia model); assay type: in vivo, mouse; conditions: for formation of new blood vessel: AM +/- mice supplemented with AM or VEGF; for recovery of blood flow / angiogenesis effect: AM +/- mice supplemented with exogenous AM or VEGF
Experimental: Rescue test using AM knockout mouse may also be carried out. In the lower-extremity ischemia model prepared from the AM knockout mouse with decreased expression level of AM, angiogenesis potency decreases. When AM is administered exogenously to the AM knockout mouse, recovery of angiogenesis potency may be observed. This is referred to as “rescue test”.
In this example, The lower extremity ischemia model mice were prepared as in Example 2, and the recovery of blood flow of the AM heterozygous knockout mice (AM +/−) supplemented with exogenous AM or VEGF.

Flk-1 knockout mice = experiment: rescue test using Flk-1 knockout mice (lower extremity ischemia model); assay type: in vivo, mouse
Experimental: On the other hand, supplementation of AM to Flk-1, a receptor of VEGF knockout mice was conducted as a rescue test opposite to that mentioned above. The recovery of blood flow in Flk-1 knockout mice decreased in comparison with wild-type.

[5] = system: angiogenesis enhancing factors and adhesion factor gene expression; experiment: gene array of sample from lower extremity ischemia model mice; assay type: in vivo, mouse
Source text: In this Example, the gene group of which expression level changes by the administration of AM were monitored by gene array using the sample form the lower extremity ischemia model mice

HUVEC = experiment: in vitro vascular permeability assay (FITC-dextran through HUVEC monolayer); assay type: cell-based, human
Experimental: In vitro vascular permeability assay is an assay in which the cells are cultured in the insert placed on the culture plate with semi-permeable membrane at the bottom to form monolayer, then the substance is added to the insert and the extent of permeability into the plate through the cell monolayer is measured. In particular, the extent of permeability is measured by addition of the substance for the vascular permeability test such as AM, followed by the addition of dextran labeled with FITC onto the cell monolayer, allowing it to permeate through the monolayer, and the fluorescence intensity in the plate well solution is measured. Thus, the suppression activity of AM on the vascular permeability may be investigated.
An insert made of semi-permeable membrane was placed on a cultivation plate, in which HUVEC was cultured so that the cells formed monolayer (EBM-2 medium, 5% CO2, 37° C., 24 hours). The extent of permeability was measured by addition of the substance for the vascular permeability test to the plate on which cell were cultured, followed by the addition of dextran labeled with FITC onto the cell monolayer, allowing it to permeate through the monolayer, and the fluorescence intensity in the plate well solution was measured.

[6] = system: lower extremity edema model mice; experiment: lower extremity edema model mice by topical injection of carrageenan; assay type: in vivo, mouse; conditions: continuous administration of AM; carrageenan to pad of foot
Experimental: Transient edema may be prepared by topical injection of carrageenan, a hyperosmotic substance to pad of foot of mouse. Magnitude of the edema thus formed was evaluated by measuring the thickness of feet pad from time to time.

[7] = system: cerebral edema model mice; experiment: cerebral edema model (cold injury of dura mater); assay type: in vivo, mouse; conditions: AM administration group vs control
Experimental: Mice were anesthetized with nembutal and then skull was opened. Injury was provided by contacting a cylinder cooled to −80° C. against dura mater. After 24 hours, mice were sacrificed, brain was removed and the increasing in the weight of the brain due to the cerebral edema was quantified. In the similar cerebral edema model, fluorescent-labeled dextran was injected into the tail vein and the leakage of the fluorescence dye out of the vessel in brain was quantified using fluorescent plate reader.

[8] = mice administered with AM 22-52
[9] = gene array, AM administration group vs control group

## AM 22-52: a truncated form of AM consisting of from 22 to 52 amino acid sequence (AM antagonist) (TVQKLAHQIYQFTDKDKDNVAPRSKISPQGY; ends and bridges not checked; UniProt P35318 116-146, looked up, fragment) [reference compound]
[1]; [8]
  angiogenesis: suppression
  recovery of blood flow: suppression
Claudin 5
  expression of claudin 5: decreased

## Adrenomedullin [AM]
[1]; AM 50 ng/h, vs control group
  wound, amputation and shortening of lower limb: Reduction of wound and decreasing in the number of amputation and shortening of lower limb
[1]; AM administration group
  percentage of the mice in which the lower limb is normal or with slight wound: more than 80%
[1]; AM administration group vs control group
  number of mice in which the lower limb was amputated or with severe wound: smaller than that in the control group
[1]; Day 7 and 12 after ischemia, AM 50 ng/h
  blood flow in ischemic lower limb: recovery of blood flow was observed
[1]; administration of AM
  number of new intramuscular blood vessel at the side of operation: increasing
  recovery of the blood flow, ratio ischemic side (L) / non-ischemic side (R) (L/R): significant recovery in the blood flow
[1]; laser Doppler perfusion imaging, AM 50 ng/h continuously by osmotic pump, C3H mice
  recovery of the blood flow of lower extremity: Improvement in the recovery of the blood flow
Akt
  phosphorylation of Akt by VEGF: enhanced
eNOS
  phosphorylation of eNOS by VEGF: enhanced
VEGF [2]
  expression level of VEGF: increased from the early stage after the ischemia operation (day 1)
VEGF [3]
  expression level of VEGF: increased concentration- and time dependently
[4]
  formation of new blood vessel: recovered to the level comparable to the wild-type
  recovery of blood flow / angiogenesis effect: recovery of the angiogenesis effect
Flk-1 knockout mice; exogenous AM to Flk-1 knockout mice
  recovery of blood flow: no recovery of blood flow
Flk-1 knockout mice; exogenous AM to wild-type mice
  recovery of blood flow: enhance the recovery of blood flow
[5]; administration of AM in comparison with control group
  expression levels of eNOS, Osteopontin, VEGF, VCAM-1 and the like: increased
[5]; [9]
  COL18A1 expression, AM(+)/Control: 2.72
  Osteopontin expression, AM(+)/Control: 1.93
  PAI-1 expression, AM(+)/Control: 1.79
  PDGF-A expression, AM(+)/Control: 5.60
  PDGFRβ expression, AM(+)/Control: 1.58
  TGFβ expression, AM(+)/Control: 4.04
  Tie-2 expression, AM(+)/Control: 3.61
  VCAM-1 expression, AM(+)/Control: 3.65
  VEGF expression, AM(+)/Control: 1.50
  eNOS expression, AM(+)/Control: 1.71
  β-glycan expression, AM(+)/Control: 6.76
HUVEC; AM in addition to VEGF
  vascular permeability (FITC-dextran through cell monolayer): suppressed the enhancement of vascular permeability by VEGF
HUVEC; substance alone
  vascular permeability (FITC-dextran through cell monolayer): suppression of vascular permeability
[6]
  formation of edema at lower limb (thickness of feet pad): suppressed
[7]
  vascular permeability in brain (leakage of fluorescent-labeled dextran): suppressed in comparison with control
[7]; 24 hours after injury
  weight of brain: decreased
Claudin 5
  expression of claudin 5: enhanced

## vascular endothelial growth factor [VEGF]
[4]
  formation of new blood vessel: recovered to the level comparable to the wild-type
  recovery of blood flow / angiogenesis effect: recovery of the angiogenesis effect
HUVEC; substance alone
  vascular permeability (FITC-dextran through cell monolayer): enhanced vascular permeability
